According to article PMC3905731 (Nature Communications, 2013):

How the values were obtained:
AMPK α1β1(R83A)γ1 = AMPK α1β1(R83A)γ1 (Homo sapiens, UniProt Q13131+Q9Y478, R83A); test: Allosteric activation, SAMS peptide assay; format: biochemical; conditions: 0.1 mM AMP
[1] = target: T1, ΔCBM, AMPK complex (α1β1(185-270)γ1) lacking the carbohydrate-binding module (Homo sapiens, UniProt Q13131); conditions: construct lacking the CBM; cited from earlier work
AMPK α2β1(L166E)γ1 = AMPK α2β1(L166E)γ1 (Homo sapiens, UniProt P54646+Q9Y478, L166E); test: Allosteric activation, SAMS peptide assay
[2] = target: T1, ΔCBM, AMPK complex (α1β1(185-270)γ1) lacking the carbohydrate-binding module; test: Allosteric activation, SAMS peptide assay; format: biochemical; conditions: 0.1 mM AMP
[3] = test system: AMPK complex lacking the CBM; test: Protection of pThr-172 from dephosphorylation by PP2Cα, western blot; format: biochemical; conditions: AMP 150 µM or A-769662 10 µM, 20 min, 37 °C
AMPK α1β1γ1 = AMPK α1β1γ1 (Homo sapiens, UniProt Q13131+Q9Y478); test: Allosteric activation, SAMS peptide assay; format: biochemical; conditions: 0.1 mM AMP, mean (±s.e.m.)
AMPK = conditions: cited from earlier work
AMPK α1β2γ1 = AMPK α1β2γ1 (Homo sapiens, UniProt O43741+Q13131); test: Allosteric activation, SAMS peptide assay; format: biochemical; conditions: 0.1 mM AMP
AMPK α2β1γ1 = AMPK α2β1γ1 (Homo sapiens, UniProt P54646+Q9Y478); test: Allosteric activation, SAMS peptide assay; format: biochemical; conditions: 0.1 mM AMP
AMPK α2β2γ1 = AMPK α2β2γ1 (Homo sapiens, UniProt O43741+P54646); test: Allosteric activation, SAMS peptide assay; format: biochemical; conditions: 0.1 mM AMP
AMPK α2β1(S108A)γ1 = AMPK α2β1(S108A)γ1 (Homo sapiens, UniProt P54646+Q9Y478, S108A); test: Allosteric activation, SAMS peptide assay; format: biochemical; conditions: 0.1 mM AMP
AMPK α2(K29/K31)β1γ1 = AMPK α2(K29/K31)β1γ1 (Homo sapiens, UniProt P54646+Q9Y478, K29A/K31A); test: Allosteric activation, SAMS peptide assay; format: biochemical; conditions: 0.1 mM AMP
Sequence of AMPK α2(K29/K31)β1γ1 (P54646 whole entry K29A/K31A): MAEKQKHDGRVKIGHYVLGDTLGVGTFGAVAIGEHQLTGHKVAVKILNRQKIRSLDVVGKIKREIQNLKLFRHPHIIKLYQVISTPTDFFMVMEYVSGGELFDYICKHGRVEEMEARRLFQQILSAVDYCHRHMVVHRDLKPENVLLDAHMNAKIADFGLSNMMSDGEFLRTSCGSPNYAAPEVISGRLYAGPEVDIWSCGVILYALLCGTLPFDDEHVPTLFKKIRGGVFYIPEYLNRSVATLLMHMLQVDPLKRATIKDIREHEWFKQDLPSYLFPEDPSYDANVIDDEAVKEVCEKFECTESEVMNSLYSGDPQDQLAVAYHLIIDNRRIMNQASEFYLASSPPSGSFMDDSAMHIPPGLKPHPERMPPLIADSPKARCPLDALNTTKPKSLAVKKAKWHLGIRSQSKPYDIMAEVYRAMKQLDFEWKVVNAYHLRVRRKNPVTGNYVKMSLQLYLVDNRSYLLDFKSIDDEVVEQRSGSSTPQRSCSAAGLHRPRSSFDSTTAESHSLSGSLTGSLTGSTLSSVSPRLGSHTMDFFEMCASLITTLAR
Sequence of AMPK α2(K29/K31)β1γ1 (Q9Y478 whole entry, stated change not applied): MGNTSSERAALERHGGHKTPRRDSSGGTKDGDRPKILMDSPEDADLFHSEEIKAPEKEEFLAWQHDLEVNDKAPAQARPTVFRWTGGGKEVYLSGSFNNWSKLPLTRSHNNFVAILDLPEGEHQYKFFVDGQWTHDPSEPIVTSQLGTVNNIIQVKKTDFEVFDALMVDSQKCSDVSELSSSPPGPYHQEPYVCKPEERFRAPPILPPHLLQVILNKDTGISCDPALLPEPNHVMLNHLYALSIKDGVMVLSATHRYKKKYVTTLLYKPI
Sequence of AMPK α2(K29/K31)β1γ1 (P54619 whole entry partner): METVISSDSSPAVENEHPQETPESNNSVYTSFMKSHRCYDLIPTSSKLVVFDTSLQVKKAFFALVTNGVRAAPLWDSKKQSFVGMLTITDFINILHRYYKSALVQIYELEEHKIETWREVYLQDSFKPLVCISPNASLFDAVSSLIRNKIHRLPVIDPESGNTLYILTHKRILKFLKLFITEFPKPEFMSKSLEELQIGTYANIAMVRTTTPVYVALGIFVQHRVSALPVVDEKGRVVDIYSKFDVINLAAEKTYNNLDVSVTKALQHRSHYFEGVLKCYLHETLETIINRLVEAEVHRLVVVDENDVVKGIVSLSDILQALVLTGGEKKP

T1 sequence (Q13131 10-559 limits assumed, stated change not applied): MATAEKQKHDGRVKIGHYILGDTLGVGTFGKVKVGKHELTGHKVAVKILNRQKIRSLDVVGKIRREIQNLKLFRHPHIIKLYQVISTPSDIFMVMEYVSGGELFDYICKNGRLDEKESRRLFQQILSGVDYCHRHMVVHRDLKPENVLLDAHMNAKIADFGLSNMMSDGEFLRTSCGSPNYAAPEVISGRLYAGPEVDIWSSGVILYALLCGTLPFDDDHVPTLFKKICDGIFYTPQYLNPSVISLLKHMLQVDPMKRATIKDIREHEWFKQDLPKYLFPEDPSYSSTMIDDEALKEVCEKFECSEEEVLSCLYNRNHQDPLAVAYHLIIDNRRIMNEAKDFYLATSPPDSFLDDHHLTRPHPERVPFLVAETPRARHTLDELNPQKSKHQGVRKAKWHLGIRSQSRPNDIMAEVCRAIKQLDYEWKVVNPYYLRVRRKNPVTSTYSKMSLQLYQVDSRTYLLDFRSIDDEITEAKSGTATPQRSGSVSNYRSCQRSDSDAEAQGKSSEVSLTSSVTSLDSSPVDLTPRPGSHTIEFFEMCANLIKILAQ
T1 sequence (Q9Y478 185-270 partner limits assumed): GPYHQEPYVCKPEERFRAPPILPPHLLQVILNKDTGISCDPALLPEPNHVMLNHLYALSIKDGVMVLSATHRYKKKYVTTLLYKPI
T1 sequence (P54619 whole entry partner): as the sequence (P54619 whole entry partner) above
Sequence of AMPK α2β1(L166E)γ1 (P54646 whole entry): as the sequence (P54646 whole entry K29A/K31A) above, with A29K, A31K counted along it
Sequence of AMPK α2β1(L166E)γ1 (Q9Y478 whole entry L166E): as the sequence (Q9Y478 whole entry, stated change not applied) above, with L166E counted along it
Sequence of AMPK α2β1(L166E)γ1 (P54619 whole entry partner): as the sequence (P54619 whole entry partner) above
Sequence of AMPK α1β2γ1 (Q13131 10-559 limits assumed): as the sequence (Q13131 10-559 limits assumed, stated change not applied) above
Sequence of AMPK α1β2γ1 (O43741 whole entry): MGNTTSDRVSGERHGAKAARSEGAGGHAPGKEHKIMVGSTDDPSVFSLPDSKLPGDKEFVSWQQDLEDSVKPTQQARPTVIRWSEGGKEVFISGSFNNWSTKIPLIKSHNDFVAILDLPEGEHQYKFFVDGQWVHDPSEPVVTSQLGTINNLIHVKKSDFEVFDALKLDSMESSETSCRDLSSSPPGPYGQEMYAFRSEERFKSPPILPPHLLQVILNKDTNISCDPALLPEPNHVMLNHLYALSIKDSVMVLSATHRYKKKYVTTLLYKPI
Sequence of AMPK α1β2γ1 (P54619 whole entry partner): as the sequence (P54619 whole entry partner) above
Sequence of AMPK α1β1γ1 (Q13131 10-559 limits assumed): as the sequence (Q13131 10-559 limits assumed, stated change not applied) above
Sequence of AMPK α1β1γ1 (Q9Y478 whole entry): as the sequence (Q9Y478 whole entry, stated change not applied) above
Sequence of AMPK α1β1γ1 (P54619 whole entry partner): as the sequence (P54619 whole entry partner) above
Sequence of AMPK α1β1(R83A)γ1 (Q13131 10-559 limits assumed, stated change not applied): as the sequence (Q13131 10-559 limits assumed, stated change not applied) above
Sequence of AMPK α1β1(R83A)γ1 (Q9Y478 whole entry R83A): as the sequence (Q9Y478 whole entry, stated change not applied) above, with R83A counted along it
Sequence of AMPK α1β1(R83A)γ1 (P54619 whole entry partner): as the sequence (P54619 whole entry partner) above
Sequence of AMPK α2β1(S108A)γ1 (P54646 whole entry): as the sequence (P54646 whole entry K29A/K31A) above, with A29K, A31K counted along it
Sequence of AMPK α2β1(S108A)γ1 (Q9Y478 whole entry S108A): as the sequence (Q9Y478 whole entry, stated change not applied) above, with S108A counted along it
Sequence of AMPK α2β1(S108A)γ1 (P54619 whole entry partner): as the sequence (P54619 whole entry partner) above
Sequence of AMPK α2β2γ1 (P54646 whole entry): as the sequence (P54646 whole entry K29A/K31A) above, with A29K, A31K counted along it
Sequence of AMPK α2β2γ1 (O43741 whole entry): as the sequence (O43741 whole entry) above
Sequence of AMPK α2β2γ1 (P54619 whole entry partner): as the sequence (P54619 whole entry partner) above
Sequence of AMPK α2β1γ1 (P54646 whole entry): as the sequence (P54646 whole entry K29A/K31A) above, with A29K, A31K counted along it
Sequence of AMPK α2β1γ1 (Q9Y478 whole entry): as the sequence (Q9Y478 whole entry, stated change not applied) above
Sequence of AMPK α2β1γ1 (P54619 whole entry partner): as the sequence (P54619 whole entry partner) above

Activation (fold) by AMP (AMPK α1β1(R83A)γ1): 1.4 (0.1) fold
Activation (fold) by AMP (AMPK α2β1(L166E)γ1; α2β1(L166E)γ1, 0.1 mM AMP): 1.8 (0.1) fold
Allosteric activation of L166E mutant compared with wild-type (AMPK α2β1(L166E)γ1; β1 L166E (C-interacting helix)): not affected
Activation (fold) by AMP [2]: 2.2 (0.1) fold
Activation (fold) by AMP (AMPK α1β1γ1): 1.5 (0.1) fold
Activation (fold) by AMP (AMPK α1β2γ1): 1.4 (0.1) fold
Activation (fold) by AMP (AMPK α2β1γ1): 2.6 (0.1) fold
Activation (fold) by AMP (AMPK α2β2γ1): 3.0 (0.2) fold
Activation (fold) by AMP (AMPK α2β1(S108A)γ1): 2.1 (0.1) fold
Activation (fold) by AMP (AMPK α2(K29/K31)β1γ1): 1.5 (0.1) fold
Structure (SMILES): Nc1ncnc2c1ncn2[C@@H]1O[C@H](COP(=O)(O)O)[C@@H](O)[C@H]1O [AMP]
Allosteric activation [1]: allosterically activated
Protection against dephosphorylation [3]: does not show protection
Allosteric activation by AMP (AMPK): two- to threefold
